Patent publication US20250179032A1, “HETEROCYCLIC INHIBITORS OF GLUT9 FOR TREATMENT OF DISEASE” (HORIZON THERAPEUTICS IRELAND DAC, priority 2022, published 2025)

The molecules below were run against T1, H. sapiens SLC2A9 variant 2 (GLUT9B) (Homo sapiens, UniProt Q9NRM0) (assay: GLUT9 functional assay: uric acid uptake in HEK293T cells, allantoin formation by MS/MS as proxy of GLUT9B inhibition). Conditions: 15 minute assay; HEK293T cells stably expressing GLUT9B and transiently A. oryzae uricase; uric acid 0.3 mM, 37° C.; read-out: 15 min IC50.
T1 sequence (Q9NRM0 1-511 isoform Q9NRM0-2): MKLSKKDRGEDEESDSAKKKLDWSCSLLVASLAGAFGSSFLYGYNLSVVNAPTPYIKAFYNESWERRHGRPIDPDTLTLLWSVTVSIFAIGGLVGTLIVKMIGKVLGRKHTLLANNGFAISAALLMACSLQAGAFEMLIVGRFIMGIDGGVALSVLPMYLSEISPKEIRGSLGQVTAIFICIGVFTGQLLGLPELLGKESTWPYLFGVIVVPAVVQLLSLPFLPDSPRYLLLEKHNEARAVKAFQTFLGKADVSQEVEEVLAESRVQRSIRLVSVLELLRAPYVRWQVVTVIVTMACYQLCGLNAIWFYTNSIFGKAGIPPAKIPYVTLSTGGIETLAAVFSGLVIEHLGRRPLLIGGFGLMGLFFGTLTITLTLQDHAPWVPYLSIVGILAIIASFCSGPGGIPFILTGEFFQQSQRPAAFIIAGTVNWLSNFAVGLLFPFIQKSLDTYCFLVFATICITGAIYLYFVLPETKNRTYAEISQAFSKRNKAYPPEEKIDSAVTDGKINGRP
Type: cell-based
Procedure, shortened: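 HEK293T cells stably expressing human GLUT9B and transiently expressing A. oryzae uricase, exposed across a 12-point curve to 0.3 mM uric acid (Km) in sodium gluconate buffer pH 7.4 for 15 or 60 min at 37° C. Allantoin in lysates quantified by RapidFire MS/MS (positive ion) against a matrix-matched standard curve as proxy for uptake.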

Compound	IC50
COCCOc1ncc(-c2ncc(CCC(F)(F)F)nc2N2CCC(C(=O)O)CC2)cc1F [Compound 98, 1-(3-(5-fluoro-6-(2-methoxyethoxy)pyridin-3-yl)-6-(3,3,3-trifluoropropyl)pyrazin-2-yl)piperidine-4-carboxylic acid]	> 2 µM
O=C(O)C1CCN(c2nc(CCC(F)(F)F)cnc2-c2ccc(OCCO)cc2)CC1 [Compound 99, 1-(3-(4-(2-hydroxyethoxy)phenyl)-6-(3,3,3-trifluoropropyl)pyrazin-2-yl)piperidine-4-carboxylic acid]	> 2 µM
COc1ccc(-c2ncc(CCC(F)(F)F)nc2N2CCC(OCC(=O)O)CC2)cc1 [Compound 100, 2-((1-(3-(4-methoxyphenyl)-6-(3,3,3-trifluoropropyl)pyrazin-2-yl)piperidin-4-yl)oxy)acetic acid]	< 0.5 µM
COCCNc1ccc(-c2ncc(CCC(F)(F)F)nc2N2CCC(C(=O)O)CC2)cc1 [Compound 103, 1-(3-(4-((2-methoxyethyl)amino)phenyl)-6-(3,3,3-trifluoropropyl)pyrazin-2-yl)piperidine-4-carboxylic acid]	0.5 to 2 µM
O=C(O)C1CCN(c2nc(CCC(F)(F)F)cnc2-c2ccncc2)CC1 [Compound 105, 1-(3-(pyridin-4-yl)-6-(3,3,3-trifluoropropyl)pyrazin-2-yl)piperidine-4-carboxylic acid]	> 2 µM
CN(C)S(=O)(=O)N1CCN(c2nc(CCC(F)(F)F)cnc2-c2ccc3occc3c2)CC1 [Compound 106, 4-(3-(benzofuran-5-yl)-6-(3,3,3-trifluoropropyl)pyrazin-2-yl)-N,N-dimethylpiperazine-1-sulfonamide]	> 2 µM
O=C(O)C1CCN(c2nc(CCCC(F)(F)F)cnc2-c2ccc3ncoc3c2)CC1 [Compound 109, 1-(3-(benzo[d]oxazol-6-yl)-6-(4,4,4-trifluorobutyl)pyrazin-2-yl)piperidine-4-carboxylic acid]	0.5 to 2 µM
O=C(O)C1CCN(c2nc(CCCC(F)(F)F)cnc2-c2ccc3c(c2)OCCO3)CC1 [Compound 110, 1-(3-(2,3-dihydrobenzo[b][1,4]dioxin-6-yl)-6-(4,4,4-trifluorobutyl)pyrazin-2-yl)piperidine-4-carboxylic acid]	0.5 to 2 µM
O=C(O)C1CCN(c2nc(CCCC(F)(F)F)cnc2-c2ccc(OCC3CC3)cc2)CC1 [Compound 111, 1-(3-(4-(cyclopropylmethoxy)phenyl)-6-(4,4,4-trifluorobutyl)pyrazin-2-yl)piperidine-4-carboxylic acid]	< 0.5 µM
O=C(O)C1CCN(c2nc(CCCC(F)(F)F)cnc2-c2ccc(OC3CC3)cc2)CC1 [Compound 113, 1-(3-(4-cyclopropoxyphenyl)-6-(4,4,4-trifluorobutyl)pyrazin-2-yl)piperidine-4-carboxylic acid]	0.5 to 2 µM
O=C(O)C1CCN(c2nc(CCCC(F)(F)F)cnc2-c2ccc3c(c2)NCCO3)CC1 [Compound 114, 1-(3-(3,4-dihydro-2H-benzo[b][1,4]oxazin-6-y)-6-(4,4,4-trifluorobutyl)pyrazin-2-yl)piperidine-4-carboxylic acid]	0.5 to 2 µM
O=C(O)C1CCN(c2nc(CCCC(F)(F)F)cnc2-c2cnc3occc3c2)CC1 [Compound 116, 1-(3-(furo[2,3-b]pyridin-5-yl)-6-(4,4,4-trifluorobutyl)pyrazin-2-yl)piperidine-4-carboxylic acid]	< 0.5 µM
COCCOCCCc1cnc(-c2cc(F)c3occc3c2)c(N2CCC(C(=O)O)CC2)n1 [Compound 118, 1-(3-(7-fluorobenzofuran-5-yl)-6-(3-(2-methoxyethoxy)propyl)pyrazin-2-yl)piperidine-4-carboxylic acid]	0.5 to 2 µM
O=C(O)C1CCN(c2nc(CCC(F)(F)F)cnc2-c2ccc3c(c2)CCO3)CC1 [Compound 119, 1-(3-(2,3-dihydrobenzofuran-5-yl)-6-(3,3,3-trifluoropropyl)pyrazin-2-yl)piperidine-4-carboxylic acid]	< 0.5 µM

The remaining lines, values ahead:

IC50	Compound
< 0.5 µM	O=C(O)C1CC2(CCN(c3nc(CCC(F)(F)F)cnc3-c3cc(F)c4occc4c3)CC2)C1 [Compound 95, 7-(3-(7-fluorobenzofuran-5-yl)-6-(3,3,3-trifluoropropyl)pyrazin-2-yl)-7-azaspiro[3.5]nonane-2-carboxylic acid]
> 2 µM	COCCOc1ccc(-c2ncc(CCC(F)(F)F)nc2N2CCC(C(=O)O)CC2)cn1 [Compound 97, 1-(3-(6-(2-methoxyethoxy)pyridin-3-yl)-6-(3,3,3-trifluoropropyl)pyrazin-2-yl)piperidine-4-carboxylic acid]
> 2 µM	O=C(O)CC1CC2(C1)CN(c1nc(CCC(F)(F)F)cnc1-c1ccc3occc3c1)C2 [Compound 101, 2-(2-(3-(benzofuran-5-yl)-6-(3,3,3-trifluoropropyl)pyrazin-2-yl)-2-azaspiro[3.3]heptan-6-yl)acetic acid]
0.5 to 2 µM	O=C(O)C1C[C@@H]2CN(c3nc(CCC(F)(F)F)cnc3-c3ccc4occc4c3)C[C@@H]2C1 (stereo partly drawn) [Compound 102, (3aR,6aS)-2-(3-(benzofuran-5-yl)-6-(3,3,3-trifluoropropyl)pyrazin-2-yl)octahydrocyclopenta[c]pyrrole-5-carboxylic acid]
0.5 to 2 µM	COCCN(C)c1ccc(-c2ncc(CCC(F)(F)F)nc2N2CCC(C(=O)O)CC2)cc1 [Compound 104, 1-(3-(4-((2-methoxyethyl)(methyl)amino)phenyl)-6-(3,3,3-trifluoropropyl)pyrazin-2-yl)piperidine-4-carboxylic acid]
< 0.5 µM	O=C(O)C1CCN(c2nc(CCCC(F)(F)F)cnc2-c2ccc3c(c2)CCO3)CC1 [Compound 107, 1-(3-(2,3-dihydrobenzofuran-5-yl)-6-(4,4,4-trifluorobutyl)pyrazin-2-yl)piperidine-4-carboxylic acid]
< 0.5 µM	O=C(O)C1CCN(c2nc(CCCC(F)(F)F)cnc2-c2ccc3c(c2)OCO3)CC1 [Compound 108, 1-(3-(benzo[d][1,3]dioxol-5-yl)-6-(4,4,4-Trifluorobutyl)Pyrazin-2-yl)piperidine-4-carboxylic acid]
0.5 to 2 µM	O=C(O)C1CCN(c2nc(CCCC(F)(F)F)cnc2-c2ccc3c(c2)CCCO3)CC1 [Compound 112, 1-(3-(chroman-6-yl)-6-(4,4,4-trifluorobutyl)pyrazin-2-yl)piperidine-4-carboxylic acid]
> 2 µM	O=C1COc2ccc(-c3ncc(CCCC(F)(F)F)nc3N3CCC(C(=O)O)CC3)cc2N1 [Compound 115, 1-(3-(3-oxo-3,4-dihydro-2H-benzo[b][1,4]oxazin-6-yl)-6-(4,4,4-trifluorobutyl)pyrazin-2-yl)piperidine-4-carboxylic acid]
0.5 to 2 µM	COCCOCCOc1ccc(-c2ncc(CCCC(F)(F)F)nc2N2CCC(C(=O)O)CC2)cc1 [Compound 117, 1-(3-(4-(2-(2-methoxyethoxy)ethoxy)phenyl)-6-(4,4,4-trifluorobutyl)pyrazin-2-yl)piperidine-4-carboxylic acid]
< 0.5 µM	O=C(O)C1CCN(c2nc(CCC(F)(F)F)cnc2-c2ccc3c(c2)OCO3)CC1 [Compound 120, 1-(3-(benzo[d][1,3]dioxol-5-yl)-6-(3,3,3-trifluoropropyl)pyrazin-2-yl)piperidine-4-carboxylic acid]

Same assay, conditions: 60 minute assay; HEK293T cells stably expressing GLUT9B and transiently A. oryzae uricase; uric acid 0.3 mM, 37° C.; read-out: 60 min IC50

IC50	Compound
< 0.5 µM	O=C(O)C1CCN(c2nc(CCCOC(F)(F)F)cnc2-c2cc(F)c3occc3c2)CC1 [Compound 96, 1-(3-(7-fluorobenzofuran-5-yl)-6-(3-(trifluoromethoxy)propyl)pyrazin-2-yl)piperidine-4-carboxylic acid]
< 0.5 µM	O=C(O)C1CCN(c2nc(CCCC(F)(F)F)cnc2-c2ccc3c(c2)OCO3)CC1 [Compound 108, 1-(3-(benzo[d][1,3]dioxol-5-yl)-6-(4,4,4-Trifluorobutyl)Pyrazin-2-yl)piperidine-4-carboxylic acid]
